Test results published in ChEMBL document CHEMBL4680155, “One-pot synthesis and molecular docking of some new spiropyranindol-2-one derivatives as immunomodulatory agents and in vitro antimicrobial potential with DNA gyrase inhibitor” (Eur J Med Chem, 2020).
≈ marks a conversion by molar mass, not a printed value.

Legend:
Staphylococcus aureus [1] = test: Antibacterial activity against Staphylococcus aureus ATCC 29213 assessed as diameter of inhibition zone at 0.5 mg/ml incubated for 24 hrs by agar diffusion method; format: functional; details: read-out: DIZ
Escherichia coli [2] = test: Antibacterial activity against Escherichia coli ATCC 25922 assessed as diameter of inhibition zone at 0.5 mg/ml incubated for 24 hrs by agar diffusion method; format: functional; details: read-out: DIZ
Candida albicans [3] = test: Antifungal activity against Candida albicans ATCC 10231 assessed as diameter of inhibition zone at 0.5 mg/ml incubated for 24 hrs by agar diffusion method; format: functional; details: read-out: DIZ
Aspergillus brasiliensis [4] = test: Antifungal activity against Aspergillus brasiliensis ATCC 16404 assessed as reduction in bacterial growth incubated for 3 days by paper disk diffusion method; format: functional; details: ATCC 16404, 72 h, time 3 day
Salmonella typhimurium [5] = test: Antibacterial activity against Salmonella typhi ATCC 6539 assessed as diameter of inhibition zone at 0.5 mg/ml incubated for 24 hrs by agar diffusion method; format: functional, Salmonella enterica subsp. enterica serovar Typhimurium; details: Salmonella enterica, read-out: DIZ
Staphylococcus aureus [6] = test: Antibacterial activity against Staphylococcus aureus ATCC 29213 assessed as reduction in bacterial growth incubated for 1 day by paper disk diffusion method; format: functional; details: ATCC 29213, 24 h
Aspergillus brasiliensis [7] = test: Antifungal activity against Aspergillus brasiliensis ATCC 16404 assessed as diameter of inhibition zone at 0.5 mg/ml incubated for 72 hrs by agar diffusion method; format: functional; details: read-out: DIZ
Candida albicans [8] = test: Antifungal activity against Candida albicans ATCC 10231 assessed as reduction in bacterial growth incubated for 1 day by paper disk diffusion method; format: functional; details: ATCC 10231, 24 h
Enterococcus faecalis [9] = test: Antibacterial activity against Enterococcus faecalis ATCC 29212 assessed as diameter of inhibition zone at 0.5 mg/ml incubated for 24 hrs by agar diffusion method; format: functional; details: read-out: DIZ
Enterococcus faecalis [10] = test: Antibacterial activity against Enterococcus faecalis ATCC 29212 assessed as reduction in bacterial growth incubated for 1 day by paper disk diffusion method; format: functional; details: ATCC 29212, 24 h
Escherichia coli [11] = test: Antibacterial activity against Escherichia coli ATCC 25922 assessed as reduction in bacterial growth incubated for 1 day by paper disk diffusion method; format: functional; details: ATCC 25922, 24 h
Salmonella typhimurium [12] = test: Antibacterial activity against Salmonella typhi ATCC 6539 assessed as reduction in bacterial growth incubated for 1 day by paper disk diffusion method; format: functional, Salmonella enterica subsp. enterica serovar Typhimurium; details: Salmonella enterica, ATCC 6539, 24 h

SMILES | zone of inhibition at 500 µg/mL (Staphylococcus aureus [1]) | zone of inhibition at 500 µg/mL (Escherichia coli [2]) | zone of inhibition at 500 µg/mL (Candida albicans [3]) | MIC (Aspergillus brasiliensis [4]) | zone of inhibition at 500 µg/mL (Salmonella typhimurium [5]) | MIC (Staphylococcus aureus [6]) | zone of inhibition at 500 µg/mL (Aspergillus brasiliensis [7]) | MIC (Candida albicans [8]) | zone of inhibition at 500 µg/mL (Enterococcus faecalis [9]) | MIC (Enterococcus faecalis [10]) | MIC (Escherichia coli [11]) | MIC (Salmonella typhimurium [12])
CCOC(=O)C1=C(C)OC(N)=C(C(=O)OCC)C12C(=O)Nc1ccc(S(=O)(=O)N3CCCCC3)cc12 (stereo unspecified) | 13 mm | 12 mm | 12 mm | 133 µg/mL (≈ 257 µM) | 13 mm | 88.3 µg/mL (≈ 170 µM) | 12 mm | 88.3 µg/mL (≈ 170 µM) | 19 mm | 35.5 µg/mL (≈ 68.4 µM) | 71.1 µg/mL (≈ 137 µM) | 88.3 µg/mL (≈ 170 µM)
CCOC(=O)C1=C(c2ccccc2)OC(N)=C(C#N)C12C(=O)Nc1ccc(S(=O)(=O)N3CCOCC3)cc12 (stereo unspecified) | 13 mm | 14 mm | 16 mm | 125 µg/mL (≈ 233 µM) | 11 mm | 125 µg/mL (≈ 233 µM) | 12 mm | 62.5 µg/mL (≈ 116 µM) | 19 mm | 7.81 µg/mL (≈ 14.6 µM) | 88.3 µg/mL (≈ 165 µM) | 133 µg/mL (≈ 248 µM)
CCOC(=O)C1=C(C)OC(N)=C(C#N)C12C(=O)Nc1ccc(S(=O)(=O)N3CCCCC3)cc12 (stereo unspecified) | 17 mm | 17 mm | 15 mm | 143 µg/mL (≈ 302 µM) | 13 mm | 83.3 µg/mL (≈ 176 µM) | 10 mm | 62.5 µg/mL (≈ 132 µM) | 18 mm | 71.1 µg/mL (≈ 150 µM) | 35.5 µg/mL (≈ 75.2 µM) | 125 µg/mL (≈ 265 µM)
CCOC(=O)C1=C(C)OC(N)=C(C(=O)OCC)C12C(=O)Nc1ccc(S(=O)(=O)N3CCOCC3)cc12 (stereo unspecified) | 14 mm | 18 mm | 13 mm | 133 µg/mL (≈ 256 µM) | 10 mm | 125 µg/mL (≈ 240 µM) | 11 mm | 125 µg/mL (≈ 240 µM) | 16 mm | 62.5 µg/mL (≈ 120 µM) | 31.2 µg/mL (≈ 59.9 µM) | 142 µg/mL (≈ 273 µM)
CCOC(=O)C1=C(N)OC(c2ccccc2)=C(C(C)=O)C12C(=O)Nc1ccc(S(=O)(=O)N3CCCCC3)cc12 (stereo unspecified) | 18 mm | 20 mm | 13 mm | 125 µg/mL (≈ 227 µM) | 15 mm | 88.3 µg/mL (≈ 160 µM) | 17 mm | 62.5 µg/mL (≈ 113 µM) | 20 mm | 17.8 µg/mL (≈ 32.2 µM) | 17.8 µg/mL (≈ 32.2 µM) | 88.3 µg/mL (≈ 160 µM)
N#CC(C#N)=C1C(=O)Nc2ccc(S(=O)(=O)N3CCCCC3)cc21 | 10 mm | 13 mm | 16 mm | 62.5 µg/mL (≈ 183 µM) | 12 mm | 133 µg/mL (≈ 389 µM) | 16 mm | 125 µg/mL (≈ 365 µM) | 17 mm | 62.5 µg/mL (≈ 183 µM) | 125 µg/mL (≈ 365 µM) | 143 µg/mL (≈ 417 µM)
CCOC(=O)C1=C(N)OC(c2ccccc2)=C(C(=O)OCC)C12C(=O)Nc1ccc(S(=O)(=O)N3CCOCC3)cc12 (stereo unspecified) | 17 mm | 16 mm | 14 mm | 133 µg/mL (≈ 228 µM) | 13 mm | 88.3 µg/mL (≈ 151 µM) | 9 mm | 88.3 µg/mL (≈ 151 µM) | 20 mm | 31.2 µg/mL (≈ 53.5 µM) | 35.5 µg/mL (≈ 60.9 µM) | 125 µg/mL (≈ 214 µM)
CCOC(=O)C1=C(C)OC(N)=C(C#N)C12C(=O)Nc1ccc(S(=O)(=O)N3CCOCC3)cc12 (stereo unspecified) | 16 mm | 19 mm | 18 mm | 167 µg/mL (≈ 351 µM) | 15 mm | 133 µg/mL (≈ 281 µM) | 10 mm | 88.3 µg/mL (≈ 186 µM) | 14 mm | 88.3 µg/mL (≈ 186 µM) | 31.2 µg/mL (≈ 65.9 µM) | 133 µg/mL (≈ 281 µM)
